# In patent US20060167037A1, “Combinational radiotherapy and chemotherapy compositions and methods” (priority 2003, published 2006):
# Columns and labels:
# Format in all cases: cell-based
# [1] = system: cancer cell lines to human breast, prostate, ovarian, pancreatic and cervical cancers; assay: Radiosensitisation of cancer cell lines on culture plates (cell viability by CellTiter, apoptosis by Hoechst 33342 dye); settings: pre-treatment (1 day and 8 hour) and sequential/post-treatment (−30 min/+4 h) regimes, at 2 and 10 μM
# Procedure: The effect of a selection of isoflavonoid compounds on various cancer cell lines subjected to radiotherapy was assessed on culture plates. Cell viability was determined using CellTiter®. Apoptosis was evaluated using Hoechst 33342 dye.
# 32 and 39 (at 2 and 10 μM).
# cancer cells [2] = assay: Synergistic interaction with death receptor ligands and growth receptor inhibitors; settings: growth receptor inhibitors eg. of EGF, PDGF, FGF, TNF and IGF receptors
# cancer cells [3] = assay: Synergy with the chemotherapeutics cisplatin and gemcitabine
SMILES,radiosensitisation of cancer cell lines subjected to radiotherapy [1],"synergistic interaction with interferon-gamma, Fas ligand, TRAIL ligand, growth receptor inhibitors (cancer cells [2])",synergy with the effect of chemotherapeutics such as cisplatin and gemcitabine (cancer cells [3])
COc1ccc(C2c3ccc(O)c(C)c3OCC2c2ccc(O)cc2)cc1 (stereo not shown) [compound 39],radiosensitised,synergistic interaction,–
"Oc1ccc(C2=Cc3ccc(O)cc3OC2)cc1 [Cpd. 12, dehydroequol]",radiosensitised,synergistic interaction,synergise
COc1ccc(C2c3ccc(O)cc3OCC2c2ccc(O)cc2)cc1 (stereo not shown) [compound 32],radiosensitised,synergistic interaction,–
